Data on three compounds can be found in patent publication US5563140A, “Use of 1-(aminoalkyl)-3-(benzyl)-quinoxaline-2-one derivatives for the preparation of neuroprotective compositions” (Phafag Aktiengesellschaft, priority 1991, dated 1996).

One series concerns glutamate receptors. Nature of the series: Microiontophoresis at inner hair cell synapse of guinea pig cochlea: glutamate-induced spike activity. The format is in vivo, guinea pigs. As to the method:
The effectiveness of the 1-(aminoalkyl)-3-(benzyl)-quinoxaline-2-one derivatives as potential glutamate receptor antagonists was studied in the light of the neurotransmission between the inner hair cells (IHC) and the peripheral dendrites of the afferent neurons in the mammalian cochlea.
(§1) Experiments were performed on adult pigmented guinea pigs (300-700 g) of both sexes, anaesthetized with a combination of Rompun (Bayer, Leverkusen, Germany) and Innovar-Vet (Pitman-Moore, Mundelin, Ill., U.S.A.). Supplementary low doses of pentobarbital (Nembutal, Abbott, Chicago, U.S.A.) were given periodically throughout the experiments. Rectal temperature was maintained within physiological limits. After tracheotomy for artificial respiration, the auditory bulla was approached ventrolaterally and the cochlea was exposed. A small opening was drilled into the cochlea bone over the pigmented stria vascularis and the ligamentum spiale of the third turn.
(§2) The occurrence of phasic activity was used to identify the location precisely, since such activity occurs in the immediate vicinity of the initial postsynaptic structures.
Recordings of extracellular action potentials were obtained using a 2M NaCl-filled barrel of the 5-barrel glass micropipette. […]

The next series concerns central nervous system. As to the kind of experiment: Double-blind, placebo-controlled clinical study, EEG-mapping. The note with it: 40 mg or 80 mg, orally or intravenously. The format is in vivo, persons. How it is done: In a double-blind, placebo-controlled clinical study on a group of 15 persons, the cerebral effect of Caroverine was tested by means of electro-encephalogram (EEG)-mapping. The 15 caucasian probands were 7 females and 8 males between 20 and 35 years old (average 27 years). The weight ranged between 53 and 84 kg (average weight: 69 kg) and the height varied between 162 to 186 cm (average height: 175 cm).
Doses of 40 mg or 80 mg of Caroverine or placebo were administered either orally or intravenously for random sampling to the persons in weekly intervals. EEG-tracings as well as recordings of pulse, blood pressure and side effects were carried out 0, 1, 2, 4, 6 and 8 hours after medication.

Series [1] deals with membrane response to acetylcholine. Nature of the series: Microiontophoresis at inner hair cell synapse of guinea pig cochlea: acetylcholine-induced firing (selectivity). The format is in vivo, guinea pigs. The note with it: acetylcholine 60 nA; Caroverine 30 nA, FIG. 3. As to the method:
as §1, §2
Recordings of extracellular action potentials were obtained using a 2M NaCl-filled barrel of the 5-barrel glass micropipette. […] Three other channels of the micropipette contained the solutions to be ejected microiontophoretically with the appropriate anionic and cationic currents: L-glutamic acid (0.5M, pH 3.5, adjusted with HCl); Caroverine-HCl (1-diethylaminoethyl-3-(p-methoxybenzyl)-1,2-dihydro-quinoxaline-2-one, 0.05M, natural pH=6.0). […]

A further series concerns tinnitus. As to the kind of experiment: Pilot clinical study in patients suffering from tinnitus. It is filed as in vivo. As to conditions: 70-160 mg. How it is done:
The neuroprotective effect of Caroverine was tested in a clinical study with patients who suffered from tinnitus. The etiology of tinnitus can be very different in different patients. One of the most frequent tinnitus type is, however, the cochlear tinnitus. If a functional disturbance between the IHC and the peripheral dendrites of the […] neurons is deemed to be the initiating, etiological factor, then this is called a "cochlear synaptic tinnitus". A neuroprotective pharmaceutical like Caroverine should therefore have a positive effect on the cochlear synaptic tinnitus.
In a pilot study Caroverine was applied to 72 patients suffering from tinnitus. Caroverine was applied intravenously (160 mg/100 ml physiological NaCl-solution). The real dosage depended on the tinnitus reduction perceived by the individual patient and varied between 70 and 160 mg.
The effectiveness of Caroverine was measured by a subjective rating and tinnitus-matching before and after the infusion of the drug.

Series [2] can be described thus: Side-effects on application, also in high doses. The format is in vivo. The note with it: Caroverine and its salts. The source says: Thus, it is experimentally established that 1-(aminoalkyl)-3-(benzyl)-quinoxaline-2-one derivatives are a potent, reversible and selective class of new glutamate receptor antagonists on the excitatory […] synapses of the cochlear inner hair cells.

Consider `CCN(CC)CCn1c(=O)c(Cc2ccc(O)cc2)nc2ccccc21` [1-diethylaminoethyl-3-(p-hydroxy)-1,2-dihydroquinoxaline-2-one], for which the “effectiveness as glutamate receptor antagonist” value in the series with glutamate receptors (cochlear inner hair cell synapses) is “effective”.
Consider `N[C@@H](CCC(=O)O)C(=O)O` [Glutamate, L-glutamic acid], for which the “effect on firing rate of fibers in the synaptic region of IHC” value with glutamate receptors (agonist alone, n=29 out of 31 fibers) is listed as “enhances the firing rate”.
For `CCN(CC)CCn1c(=O)c(Cc2ccc(OC)cc2)nc2ccccc21` [Caroverine], in the series on central nervous system, the “time of maximum effect after medication” value was “around 1 hour”. Also, the “effect on acetylcholine-induced firing rate” value in series [1] was “no effect”. Also, the “patients noting a tinnitus reduction of at least 50% in absolute value” in the series on tinnitus (immediately after intravenous infusion, 72 patients) was determined as 66.7%. The side-effects result is reported as “No sincere side-effects” with tinnitus (intravenous infusion) and “no critical side-effects” in series [2].
